Assay results as given in US20110301233A1, “Novel Polyisoprenylated Benzophenone Derivatives from Garcinia paucinervis” (priority 2010, published 2011).

What was measured:
Assay type in all cases: cell-based
[1] = system: HeLa cells; assay: MTT assay, HeLa cell growth inhibition; settings: for IC50: HeLa cells treated for 72 h, MTT; for HeLa cell growth inhibiting effect: HeLa cells, 72 h, IC50 below or near 10
Description: IC50 of four new compounds was measured using MTT assay. MTT powder was dissolved in PBS at a concentration of 5 mg/mL. For MTT assay, 10 μL of MTT solution was added into each well of a 96-well plate. After 2 h incubation at 37° C., 100 μL 10% SDS solution with 0.01 M HCl was added to dissolve the purple crystals. After 24 h incubation, the optical density (OD) readings at 595 nm were measured using a plate reader. Firstly, 2,500 HeLa cells suspended in 100 μL MEM medium were seeded respectively in a 96-well plate. After 24 h incubation, fresh medium that contained various concentrations of each compound were added into the 96-well plate and changed the old medium. The concentrations applied were ranged from 100 μM to 1.5625 μM, which was achieved by doing two-fold dilutions for 6 times. The OD values of the control group at 0 h and 72 h together with the compound treated groups at 72 h from the MTT assay were measured using a plate reader. IC50 is the concentration of a compound inhibiting 50% of the cell growth.

[2] = system: HeLa-C3 cells; assay: Cell morphology changes during compound treatment (FIG. 5)
Description: Various cell morphologies were recorded at the indicated time points. The control cells have normal attached cell morphology through the course of the experiment. Cells have shrinkage and detached morphology when they were treated with either the anticancer drug paclitaxel or other compounds, confirming their ability to kill cancer cells.
In addition to detecting the caspase activation using our HeLa-C3 cells, the cell morphology changes was also examined after the treatment of the tested compounds.

[3] = system: HeLa-C3 cells; assay: Apoptosis-inducing effect: caspase-3 activation, YFP/CFP emission ratio (FRET biosensor) in HeLa-C3 cells; settings: for Apoptotic effect at 25 μM / Apoptotic effect at 50 μM / Apoptotic effect at 100 μM: 72 h
Description: The biological activity of Compounds 1-4 was evaluated for apoptosis-inducing effects using genetically engineered HeLa-C3 cells that can produce a fluorescent biosensor capable of detecting caspase-3 activation. These cells emit a green light under normal growth conditions and change to a blue light when caspase-3 is activated during apoptosis to cleave the sensor protein inside the cells. This color change allows one to use a fluorescent plate reader to directly detect the activation level of caspase-3 in HeLa-C3 cells during the course of the compound treatment in a noninvasive way. Based on our previous test results, the emission ratio of YFP (yellow fluorescent protein)/CFP (cyanfluorescent proteins) is usually between 6 and 8 in normal cells, and this ratio will decrease to a value below 3 if a compound can activate caspase-3 and kill cancer cells. Therefore, any compound that can reduce the YFP/CFP emission ratio to a value below 3 is considered positive in activating apoptosis.
Bioassay: The bioassay method was described in our previous paper with some modifications. All the testing samples were dissolved in DMSO to make stock solutions. The concentration of each stock was at least 1000 times higher than the working concentration. HeLa-C3 cells, which can detect apoptotic cell death involving caspase activation, were cultured in minimum essential medium (MEM) containing 10% fetal bovine serum, 100 U/ml penicillin, […] streptomycin, in a 5% CO2 humidity incubator at 37° C. The sample well for apoptotic activity testing was prepared by seeding a well on a 96-well plate with 7500 HeLa-C3 cells suspended in 100 μl culture medium. After 12-16 h incubation, the old medium was removed and 100 μl freshly prepared culture medium containing the testing sample at a certain working concentration was added to both the sample well and the corresponding background well. Culture medium containing 0.1% DMSO was the negative control while 500 nM paclitaxel was the positive control. After that, the plate was read repeatedly by a Perkin-Elmer Victor reader with excitation wavelength at 440±10 nm and emission wavelength at 486±8 nm for CFP (cyan fluorescent protein) and 535±8 nm for YFP (yellow fluorescent protein) at indicated time points. The data acquisition duration was up to 72 h. The YFP/CFP emission ratio was then calculated. The background fluorescence was measured from the wells containing only medium. After subtracting the background fluorescence from the recorded signal, net YFP and CFP readings were obtained. In this paper, Y/C emission ratio is used to represent the effect of FRET, which is equal to the net YFP reading divided by the net CFP reading from the same well. If YFP/CFP emission ratio was reduced below 3, the testing sample was considered as a good apoptotic inducer at that concentration. All samples were tested in triplicate. The whole experiment was repeated for three times.

| SMILES | IC50 [1] | HeLa cell growth inhibiting effect [1] | cell morphology ([2]; 25 μM, 24, 48 and 72 h) | Apoptotic effect at 25 μM [3] | Apoptotic effect at 50 μM [3] | Apoptotic effect at 100 μM [3] | cell morphology ([2]; 50 μM, 24, 48 and 72 h) | caspase-3 activation ([3]; within 72 h at 100 μM and 50 μM) | cell morphology ([2]; 500 nM, positive control) |
| --- | --- | --- | --- | --- | --- | --- | --- | --- | --- |
| CC(C)=CC[C@H]1C[C@@]23CC4(CCC(C)(C)C[C@]4(C)O)OC2=C(OC(=O)c2ccc(O)c(O)c2)C(=O)[C@](CC=C(C)C)(C3=O)C1(C)C (relative stereo) [Compound 3, Paucinone C] | 24.3 ± 0.6 µM |  |  | − (“−” means the YFP/CFP emission ratio of compound treated HeLa-C3 cells was above 3 at 72 h.) | + (“+” means the YFP/CFP emission ratio of compound treated HeLa-C3 cells was below 3 at 72 h.) | + (“+” means the YFP/CFP emission ratio of compound treated HeLa-C3 cells was below 3 at 72 h.) | cell shrinkage | could activate caspase-3 |  |
| C=C1CCCC(C)(C)[C@H]1C[C@H]1C[C@@]23CC(C(C)(C)O)OC2=C(C(=O)c2ccc(O)c(O)c2)C(=O)[C@](CC=C(C)C)(C3=O)C1(C)C (relative stereo) [Compound 4, Paucinone D] | 5.8 ± 0.6 µM | strong HeLa cell growth inhibiting effects | cell shrinkage | + (“+” means the YFP/CFP emission ratio of compound treated HeLa-C3 cells was below 3 at 72 h.) | + (“+” means the YFP/CFP emission ratio of compound treated HeLa-C3 cells was below 3 at 72 h.) | + (“+” means the YFP/CFP emission ratio of compound treated HeLa-C3 cells was below 3 at 72 h.) |  |  |  |
| CC(=O)O[C@H]1C(=O)[C@@]2(C)[C@H]([C@H](OC(=O)c3ccccc3)[C@]3(O)C[C@H](OC(=O)[C@H](O)[C@@H](NC(=O)c4ccccc4)c4ccccc4)C(C)=C1C3(C)C)[C@]1(OC(C)=O)CO[C@@H]1C[C@@H]2O [paclitaxel, reference compound] |  |  |  |  |  |  |  |  | typical cell shrinkage morphology |

The next lines start with results.

| IC50 [1] | SMILES | HeLa cell growth inhibiting effect [1] | cell morphology ([2]; 25 μM, 24, 48 and 72 h) | Apoptotic effect at 25 μM [3] | Apoptotic effect at 50 μM [3] | Apoptotic effect at 100 μM [3] | cell morphology ([2]; 50 μM, 24, 48 and 72 h) | caspase-3 activation ([3]; within 72 h at 100 μM and 50 μM) | cell morphology ([2]; 500 nM, positive control) |
| --- | --- | --- | --- | --- | --- | --- | --- | --- | --- |
| 10 ± 0.5 µM | CC(C)=CC[C@H]1C[C@@]23CC4(CCC(C)(C)C[C@]4(C)O)OC2=C(C(=O)c2ccc(O)c(O)c2)C(=O)[C@](CC=C(C)C)(C3=O)C1(C)C (relative stereo) [Compound 1, Paucinone A] | strong HeLa cell growth inhibiting effects | cell shrinkage | + (“+” means the YFP/CFP emission ratio of compound treated HeLa-C3 cells was below 3 at 72 h.) | + (“+” means the YFP/CFP emission ratio of compound treated HeLa-C3 cells was below 3 at 72 h.) | + (“+” means the YFP/CFP emission ratio of compound treated HeLa-C3 cells was below 3 at 72 h.) |  |  |  |
| 8.2 ± 0.8 µM | CC(C)=CC[C@H]1C[C@@]23CC4(CCC(C)(C)C[C@@]4(C)O)OC2=C(C(=O)c2ccc(O)c(O)c2)C(=O)[C@](CC=C(C)C)(C3=O)C1(C)C (relative stereo) [Compound 2, Paucinone B] | strong HeLa cell growth inhibiting effects | cell shrinkage | + (“+” means the YFP/CFP emission ratio of compound treated HeLa-C3 cells was below 3 at 72 h.) | + (“+” means the YFP/CFP emission ratio of compound treated HeLa-C3 cells was below 3 at 72 h.) | + (“+” means the YFP/CFP emission ratio of compound treated HeLa-C3 cells was below 3 at 72 h.) |  |  |  |
